# Experimental data: PMC12775434, “Ultra-large virtual screening unveils potent agonists of the neuromodulatory orphan receptor GPR139” (Nature Communications, 2025)
# “And” between values parts separate entries of the source, which are not always exact repeats. Equal values may be shown once.
# Tests used:
# [1] = molecular target: T1, GPR139 (Gi3 activation) (Homo sapiens, UniProt Q6DWJ6); test: BRET G protein activation (dissociation) assay, Gi3, HEK293A; type: cell-based; details: for G protein activation, Gi3: individual replicates
# T1 construct: expressed in transfected cells; host or cells: HEK293A (transient, Lipofectamine 2000)
# T1 sequence (Q6DWJ6 1-353): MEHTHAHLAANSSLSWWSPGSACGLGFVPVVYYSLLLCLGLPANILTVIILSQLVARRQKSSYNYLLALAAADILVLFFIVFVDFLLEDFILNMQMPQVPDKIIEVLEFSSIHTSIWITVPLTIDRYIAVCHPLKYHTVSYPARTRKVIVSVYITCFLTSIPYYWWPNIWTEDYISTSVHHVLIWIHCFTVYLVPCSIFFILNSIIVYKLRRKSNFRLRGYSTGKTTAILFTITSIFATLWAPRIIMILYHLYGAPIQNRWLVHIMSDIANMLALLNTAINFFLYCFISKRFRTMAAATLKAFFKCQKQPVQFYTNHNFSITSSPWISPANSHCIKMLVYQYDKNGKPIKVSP
# Description: (§1) Primary screening and pharmacological characterization of compounds were performed using a CHO-K1 cell line that stably expresses human GPR139 (GPR139-CHOk1). The GPR139-CHOk1 cell line was kindly provided by H. Lundbeck A/S, Denmark[24]. GPR139-CHOk1 cells were grown in Ham’s F-12 Kaighn’s Modification Medium (ThermoFisher #21127030) supplemented with 10% dialyzed fetal bovine serum (US origin, ThermoFisher #26400044), 100 units/mL Penicillin-Streptomycin (ThermoFisher #15140122), and 1 mg/mL Geneticin (ThermoFisher #11811031). […] M1R-CHOk1 cells were purchased from The Missouri S&T cDNA Resource Center (#CEM100TN00). M1R-CHOk1 cells were grown in Ham’s F12 Medium (ThermoFisher #21765029) supplemented with 10% fetal bovine serum (Brazilian origin, ThermoFisher #10270106), 100 units/mL Penicillin-Streptomycin, and 0.25 mg/mL Geneticin. HEK293A cells transiently transfected with GPR139 were used for additional pharmacological assessment of signaling pathways activated by GPR139. HEK239A cells were generously provided by Dr. Asuka Inoue, Tohoku University, Japan. HEK293A cells were grown in Dulbecco’s Modified Eagle Medium (ThermoFisher #31966047) supplemented with 10% dialyzed fetal bovine serum and 100 units/mL Penicillin-Streptomycin. Cell lines were maintained at 37 °C in humidified incubator equilibrated with 5% CO2.
# (§2) The G protein dissociation assay developed by the lab of Kirill A. Martemyanov was used to measure the coupling of multiple G proteins by GPR139[57]. The assay was performed as described previously with minor modifications. HEK293A cells were reverse transfected 20–24 h prior to assay. 50,000 cells were plated in each well of white opaque tissue culture treated 96-well plates (PerkinElmer #6005680) previously coated with poly-D-lysine. Transfection solutions were prepared as described, and 10 µL transfection solution was mixed with 100 µL cells in each well. The cells in each well were transfected with 18.9 ng GPR139, 6.3 ng Venus 1-155 Gγ2, 6.3 ng Venus 159-239 Gβ1, 6.3 ng masGRK3ct-NanoLuc and 12.6 ng Gαi2, 12.6 ng Gαi3, 12.6 ng GαoA, 12.6 ng Gαq or 25.2 ng Gα12 using 375 nL Lipofectamine 2000 Transfection Reagent. Transfections with Gαq and Gα12 contained 6.3 ng DNA of the active subunit S1 of pertussis toxin (PTX-S1). Each transfection was normalized to 150 ng total DNA with pcDNA3.1. The BRET biosensors were a kind gift from the Martemyanov lab. On the day of the experiment the cells were washed with HEPES buffer. Test compounds were diluted in HEPES buffer from DMSO stocks (final DMSO concentration of maximally 0.3%). NanoLuc Luciferase substrate NanoGlo—furimazine (Promega #N1120) was diluted 1000-fold (final) in HEPES buffer. NanoGlo and test compounds were added, and measurements were performed after 10 s for Gi3, 15 s for Gi2 and GoA, 20 s for Gq, and 90 s for G12—the timepoint where maximal signal occurred with each G protein, ensuring proper determination of the potency for the G protein coupling. Simultaneous dual emission was measured at 535 nm and 475 nm on LUMIstar Omega Microplate Reader (BMG Labtech) at room temperature. The BRET ratio of 535 nm/475 nm (Venus/NanoLuc), reflecting the dissociation of the G protein heterotrimer, was used to determine the G protein activation. The basal BRET ratio obtained with buffer condition was subtracted from the absolute BRET ratio at a given test compound concentration, and the responses were normalized to the one obtained with 10 µM JNJ-63533054 for the activation of Gi2.
# (§3) Pharmacological data and statistical analyses were performed in GraphPad Prism v9–10 (Graphpad Software Inc., San Diego, CA), which are also specifically described in the figure and table legends. […]
# [2] = molecular target: T2, GPR139 (G12 activation) (Homo sapiens, UniProt Q6DWJ6); test: BRET G protein activation (dissociation) assay, G12, HEK293A; type: cell-based; details: for G protein activation, G12: individual replicates
# T2 construct: expressed in transfected cells; host or cells: HEK293A (transient, Lipofectamine 2000)
# T2 sequence (Q6DWJ6 1-353): T1 sequence (Q6DWJ6 1-353)
# Description: as §1, §2, §3
# [3] = HEK293-A, normalized to JNJ-63533054 (JNJ(S))
compound,measurement,setting,value
Cc1cscc1-c1nc(CC(=O)N[C@H](C)c2ccccc2)no1 [1.1(R)],Emax,[1]; [3],37 ± 1%
same,EC50,"[1]; Supplementary Table 6, read-out: pEC50 Gi3 (converted)",0.794 µM
same,"G protein activation, Gi3",[1]; log [compound] M -4.5,39 % of JNJ-63533054 at Gi2 and 35 % of JNJ-63533054 at Gi2 and 34 % of JNJ-63533054 at Gi2
same,"G protein activation, Gi3",[1]; log [compound] M -5.0,33 % of JNJ-63533054 at Gi2 and 34 % of JNJ-63533054 at Gi2 (2×)
same,"G protein activation, Gi3",[1]; log [compound] M -5.5,30 % of JNJ-63533054 at Gi2 (2×) and 24 % of JNJ-63533054 at Gi2
same,"G protein activation, Gi3",[1]; log [compound] M -6.0,21 % of JNJ-63533054 at Gi2 and 22 % of JNJ-63533054 at Gi2 and 20 % of JNJ-63533054 at Gi2
same,"G protein activation, Gi3",[1]; log [compound] M -6.5,11 % of JNJ-63533054 at Gi2 (2×) and 12 % of JNJ-63533054 at Gi2
same,"G protein activation, Gi3",[1]; log [compound] M -7.0,1 % of JNJ-63533054 at Gi2 and 4.71 % of JNJ-63533054 at Gi2 and 3.32 % of JNJ-63533054 at Gi2
same,"G protein activation, Gi3",[1]; log [compound] M -7.5,-0.169 % of JNJ-63533054 at Gi2 and 1.37 % of JNJ-63533054 at Gi2 and 5.42 % of JNJ-63533054 at Gi2
same,"G protein activation, Gi3",[1]; log [compound] M -8.0,-2.27 % of JNJ-63533054 at Gi2 and 2 % of JNJ-63533054 at Gi2 and 10 % of JNJ-63533054 at Gi2
same,Emax,[2]; [3],51 ± 4%
same,EC50,"[2]; Supplementary Table 6, read-out: pEC50 G12 (converted)",0.794 µM
same,"G protein activation, G12",[2]; log [compound] M -4.5,43 % of JNJ-63533054 at Gi2 and 44 % of JNJ-63533054 at Gi2 and 51 % of JNJ-63533054 at Gi2
same,"G protein activation, G12",[2]; log [compound] M -5.0,42 % of JNJ-63533054 at Gi2 and 36 % of JNJ-63533054 at Gi2 and 51 % of JNJ-63533054 at Gi2
same,"G protein activation, G12",[2]; log [compound] M -5.5,35 % of JNJ-63533054 at Gi2 and 29 % of JNJ-63533054 at Gi2 and 39 % of JNJ-63533054 at Gi2
same,"G protein activation, G12",[2]; log [compound] M -6.0,31 % of JNJ-63533054 at Gi2 and 23 % of JNJ-63533054 at Gi2 and 34 % of JNJ-63533054 at Gi2
same,"G protein activation, G12",[2]; log [compound] M -6.5,19 % of JNJ-63533054 at Gi2 and 12 % of JNJ-63533054 at Gi2 and 22 % of JNJ-63533054 at Gi2
same,"G protein activation, G12",[2]; log [compound] M -7.0,6 % of JNJ-63533054 at Gi2 and 6.57 % of JNJ-63533054 at Gi2 and 15 % of JNJ-63533054 at Gi2
same,"G protein activation, G12",[2]; log [compound] M -7.5,3 % of JNJ-63533054 at Gi2 and 4 % of JNJ-63533054 at Gi2 and 9 % of JNJ-63533054 at Gi2
same,"G protein activation, G12",[2]; log [compound] M -8.0,-4.59 % of JNJ-63533054 at Gi2 and 2 % of JNJ-63533054 at Gi2 and 6 % of JNJ-63533054 at Gi2
